Counter-ions that a name gives are not always drawn.
Target: human MCH-1 receptor (Homo sapiens (Human), UniProt Q99705)
Assay: Binding assay for human melanin-concentrating hormone (MCH1) receptor
Details: membranes from CHO-K1 cells expressing human MCH-1 receptor; 1.4 nM [3H]-labeled radioligand; 60 min at 25° C.; Ki by Cheng Prusoff
Method: Evaluation of the affinity of compounds for the human MCH-1 receptor was accomplished using 4-(3,4,5-tritritiumbenzyloxy)-1-(1-(2-(pyrrolidin-1-yl)ethyl)-1H-indazol-5-yl)pyridin-2(1H)-one and membranes prepared from stable CHO-K1 cells expressing the human MCH-1 receptor obtained from Euroscreen (Batch 1138). Cell membrane homogenates (8.92 μg protein) were incubated for 60 min at 25° C. with 1.4 nM of the [^3H]-labeled compound in the absence or presence of the test compound in 50 mM Tris-HCl buffer, pH 7.4. Nonspecific binding was determined in the presence of 50 μM 1-(5-(4-cyanophenyl)bicyclo[3.1.0]hexan-2-yl)-3-(4-fluoro-3-(trifluoromethyl)phenyl)-1-(3-(4-methylpiperazin-1-yl)propyl)urea. Following incubation, the samples were filtered rapidly under vacuum through Skatron 11731 filters, pre-soaked in 0.5% polyethylenimine, and washed with ice-cold 50 mM Tris-HCl buffer, pH 7.4, (wash setting 9,9,0) using a Skatron cell harvester. The filters were counted for radioactivity in a liquid scintillation counter (Tri-Carb 2100TR, Packard) using a scintillation cocktail (Ultima Gold MV, Perkin Elmer).
The results are expressed as a percent inhibition of the control radioligand specific binding. The IC50 value (concentration causing a half-maximal inhibition of control specific binding) and Hill coefficient (nH) were determined by non-linear regression analysis of the competition curve using Hill equation curve fitting. The inhibition constant (Ki) was calculated from the Cheng Prusoff equation: (Ki=IC50/(1+(L/KD)), where L=concentration of radioligand in the assay, and KD=affinity of the radioligand for the receptor.

human MCH-1 receptor, sequence (Q99705 whole entry): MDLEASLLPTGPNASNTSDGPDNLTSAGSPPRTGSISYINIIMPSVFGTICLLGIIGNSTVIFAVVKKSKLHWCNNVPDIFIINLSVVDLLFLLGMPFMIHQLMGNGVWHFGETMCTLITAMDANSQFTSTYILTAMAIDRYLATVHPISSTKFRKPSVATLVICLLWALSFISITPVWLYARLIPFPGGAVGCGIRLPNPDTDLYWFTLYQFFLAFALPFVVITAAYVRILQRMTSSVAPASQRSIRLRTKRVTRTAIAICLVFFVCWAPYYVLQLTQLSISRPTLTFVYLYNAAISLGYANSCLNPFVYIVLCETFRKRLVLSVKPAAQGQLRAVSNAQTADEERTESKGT

SMILES | Ki [nM]
Cn1c2c(c3ccc(-n4ccc(OCc5ccc(F)cn5)cc4=O)cc31)CN1CCC2CC1 [Example 4, 4-((5-Fluoropyridin-2-yl)methoxy)-1-(6-methyl-3,4,5,6-tetrahydro-1H-2,5-ethanoazepino[4,3-b]indol-8-yl)pyridin-2(1H)-one hydrochloride] | 44
Cn1c2c(c3ccc(-n4ccc(-c5ccc(C(F)(F)F)nn5)cc4=O)cc31)CN1CCC2CC1 [Example 5, 1-(6-Methyl-3,4,5,6-tetrahydro-1H-2,5-ethanoazepino[4,3-b]indol-8-yl)-4-(6-(trifluoromethyl)pyridazin-3-yl)pyridin-2(1H)-one hydrochloride] | 23
Cn1c2c(c3ccc(-n4ccc(OCc5ccc(F)cc5F)cc4=O)nc31)CN1CCC2CC1 [Example 9, 4-(2,4-Difluorobenzyloxy)-1-(10-methyl-7,8,9,10-tetrahydro-5H-6,9-ethanopyrido[3′,2′:4,5]pyrrolo[3,2-c]azepin-2-yl)pyridin-2(1H)-one hydrochloride] | 15
Cn1c2c(c3ccc(-n4ccc(-c5ccc(C(F)(F)F)cc5)cc4=O)nc31)CN1CCC2CC1 [Example 10, 1-(10-Methyl-7,8,9,10-tetrahydro-5H-6,9-ethanopyrido[3′,2′:4,5]pyrrolo[3,2-c]azepin-2-yl)-4-(4-(trifluoromethyl)phenyl)pyridin-2(1H)-one hydrochloride] | 15
Cn1c2c(c3ccc(-n4ccc(OCc5ccc(F)cn5)cc4=O)nc31)CN1CCC2CC1 [Example 11, 4-((5-Fluoropyridin-2-yl)methoxy)-1-(10-methyl-7,8,9,10-tetrahydro-5H-6,9-ethanopyrido[3′,2′:4,5]pyrrolo[3,2-c]azepin-2-yl)pyridin-2(1H)-one hydrochloride] | 25

Now from value to compound:

Ki [nM] | SMILES
6.4 | Cn1c2c(c3ccc(-n4ccc(OCc5ccccc5)cc4=O)cc31)CN1CCC2C1 (stereo not shown) [Example 2, 4-(Benzyloxy)-1-(6-methyl-3,4,5,6-tetrahydro-1H-2,5-methanoazepino[4,3-b]indol-8-yl)pyridin-2(1H)-one hydrochloride]
5.9 | Cn1c2c(c3ccc(-n4ccc(OCc5ccccc5)cc4=O)cc31)CN1CCC2CC1 [Example 3, 4-(Benzyloxy)-1-(6-methyl-3,4,5,6-tetrahydro-1H-2,5-ethanoazepino[4,3-b]indol-8-yl)pyridin-2(1H)-one hydrochloride]
123 | Cn1c2c(c3ccc(-n4ccc(-c5ccc(C(F)(F)F)cn5)cc4=O)cc31)CN1CCC2CC1 [Example 6, 1-(6-Methyl-3,4,5,6-tetrahydro-1H-2,5-ethanoazepino[4,3-b]indol-8-yl)-4-(5-(trifluoromethyl)pyridin-2-yl)pyridin-2(1H)-one hydrochloride]
11 | Cn1c2c(c3ccc(-n4ccc(OCc5ccc(C(F)(F)F)nc5)cc4=O)cc31)CN1CCC2CC1 [Example 7, 1-(6-Methyl-3,4,5,6-tetrahydro-1H-2,5-ethanoazepino[4,3-b]indol-8-yl)-4-((6-(trifluoromethyl)pyridin-3-yl)methoxy)pyridin-2(1H)-one hydrochloride]
29 | Cn1c2c(c3ccc(-n4ccc(OCc5ccccc5)cc4=O)nc31)CN1CCC2CC1 [Example 8, 4-(Benzyloxy)-1-(10-methyl-7,8,9,10-tetrahydro-5H-6,9-ethanopyrido[3′,2′:4,5]pyrrolo[3,2-c]azepin-2-yl)pyridin-2(1H)-one hydrochloride]
